Key:
[1] = Growth inhibition of human SGC7901 cells after 72 hrs by MTT assay; type: functional; details: SGC-7901, 72 h
HCT-116 [2] = assay: Growth inhibition of human HCT116 cells after 72 hrs by MTT assay; type: functional; details: HCT-116, 72 h
[3] = Growth inhibition of human HLF cells after 72 hrs by MTT assay; type: cell-based
[4] = Growth inhibition of human 16HBE cells after 72 hrs by MTT assay; type: cell-based, 16HBE14o-
[5] = Growth inhibition of human HLF cells by MTT assay
[6] = Growth inhibition of human 16HBE cells by MTT assay
HCT-116 [7] = assay: Growth inhibition of human HCT116 cells by MTT assay
[8] = Growth inhibition of human SGC7901 cells by MTT assay; details: SGC-7901

CCCCCCCCCC[C@H](O)COCCOC[C@@H](O)CCCCCCCCCCCCC1=C[C@H](C)OC1=O gave a GI50 [1] of 0.16 µM, a GI50 (HCT-116 [2]) of 0.03 µM and a GI50 at 72 h [3] of 9.71 µM. It also gave a GI50 at 72 h [4] of 3.34 µM, a GI50 [5] of 2.62 µM and a GI50 [6] of 4.8 µM. For the same compound, the GI50 (HCT-116 [7]) was 0.09 µM and the GI50 [8] was 0.25 µM.

For COC1=C(OC)C(=O)C(CCCCCCCCCCN2CCN(CCCCCCCCCCC3=C(C)C(=O)C(OC)=C(OC)C3=O)CC2)=C(C)C1=O, the GI50 [1] was 9.77 µM, the GI50 (HCT-116 [2]) was 1.95 µM and the GI50 at 72 h [3] was greater than 20 µM. The GI50 at 72 h [4] was 2.63 µM, the GI50 [5] was greater than 20 µM and the GI50 [6] was greater than 20 µM. For the same compound, the GI50 (HCT-116 [7]) was 11.7 µM.

With COC1=C(C)C(=O)C(CCCCCCCCCCN2CCN(CCCCCCCCCCC3=C(C)C(=O)C(OC)=C(C)C3=O)CC2)=C(C)C1=O the GI50 [1] was 0.14 µM, the GI50 (HCT-116 [2]) was 0.18 µM and the GI50 at 72 h [3] was greater than 20 µM. For the same compound, the GI50 at 72 h [4] was greater than 20 µM, the GI50 [5] was greater than 20 µM and the GI50 [6] was 8.4 µM. It also gave a GI50 (HCT-116 [7]) of 0.15 µM and a GI50 [8] of 0.19 µM.

With CC1=C(C)C(=O)C(CCCCCCCCCCN2CCN(CCCCCCCCCCC3=C(C)C(=O)C(C)=C(C)C3=O)CC2)=C(C)C1=O the GI50 [1] was greater than 20 µM, the GI50 (HCT-116 [2]) was 0.07 µM and the GI50 at 72 h [3] was greater than 20 µM. The GI50 at 72 h [4] was 3.85 µM, the GI50 [5] was 5.87 µM and the GI50 [6] was 1.52 µM. The GI50 (HCT-116 [7]) was 0.12 µM.

For CC1=C(CCCCCCCCCCN2CCN(CCCCCCCCCCC3=C(C)C(=O)c4ccccc4C3=O)CC2)C(=O)c2ccccc2C1=O, the GI50 [1] was greater than 20 µM, the GI50 (HCT-116 [2]) was 0.26 µM and the GI50 at 72 h [3] was greater than 20 µM. The GI50 at 72 h [4] was 3.52 µM, the GI50 [5] was 15.7 µM and the GI50 [6] was 4.15 µM. The GI50 (HCT-116 [7]) was 0.26 µM and the GI50 [8] was 0.39 µM.

Compound COC1=C(OC)C(=O)C(CCCCCCCCCCN2CCCN(CCCCCCCCCCC3=C(C)C(=O)C(OC)=C(OC)C3=O)CC2)=C(C)C1=O has a GI50 [1] of 8.69 µM, a GI50 (HCT-116 [2]) of 1.98 µM and a GI50 at 72 h [3] greater than 20 µM. It also gave a GI50 at 72 h [4] of 1.14 µM, a GI50 [5] greater than 20 µM and a GI50 [6] of 14 µM. For the same compound, the GI50 (HCT-116 [7]) was 8.43 µM and the GI50 [8] was 11.7 µM.

For COC1=C(C)C(=O)C(CCCCCCCCCCN2CCCN(CCCCCCCCCCC3=C(C)C(=O)C(OC)=C(C)C3=O)CC2)=C(C)C1=O, the GI50 [1] was 0.04 µM, the GI50 (HCT-116 [2]) was 0.04 µM and the GI50 at 72 h [3] was greater than 20 µM. It also gave a GI50 at 72 h [4] greater than 20 µM, a GI50 [5] of 6.86 µM and a GI50 [6] of 1.78 µM. For the same compound, the GI50 (HCT-116 [7]) was 0.02 µM.

CC1=C(C)C(=O)C(CCCCCCCCCCN2CCCN(CCCCCCCCCCC3=C(C)C(=O)C(C)=C(C)C3=O)CC2)=C(C)C1=O showed a GI50 [1] of 0.14 µM, a GI50 (HCT-116 [2]) of 0.3 µM and a GI50 at 72 h [3] of 0.36 µM. For the same compound, the GI50 at 72 h [4] was 3.32 µM, the GI50 [5] was 2.55 µM and the GI50 [6] was 0.91 µM. For the same compound, the GI50 (HCT-116 [7]) was 0.1 µM and the GI50 [8] was 0.14 µM.

Work on CC1=C(CCCCCCCCCCN2CCCN(CCCCCCCCCCC3=C(C)C(=O)c4ccccc4C3=O)CC2)C(=O)c2ccccc2C1=O yielded a GI50 [1] of 0.12 µM, a GI50 (HCT-116 [2]) of 0.09 µM and a GI50 at 72 h [3] of 4.95 µM. For the same compound, the GI50 at 72 h [4] was 2.7 µM, the GI50 [5] was 2.68 µM and the GI50 [6] was 1.14 µM. The GI50 (HCT-116 [7]) was 0.13 µM and the GI50 [8] was 0.15 µM.

With COC1=C(C)C(=O)C(CCCCCCCCCCN(C)CCN(C)CCCCCCCCCCC2=C(C)C(=O)C(OC)=C(C)C2=O)=C(C)C1=O the GI50 [1] was 9.76 µM, the GI50 (HCT-116 [2]) was 1.48 µM and the GI50 at 72 h [3] was greater than 20 µM. It also gave a GI50 at 72 h [4] greater than 20 µM, a GI50 [5] greater than 20 µM and a GI50 [6] greater than 20 µM. It also gave a GI50 (HCT-116 [7]) greater than 20 µM.

COC1=C(OC)C(=O)C(CCCCCCCCCCN2CCCN(C(=O)c3ccc(-c4ccccc4)cc3)CC2)=C(C)C1=O gave a GI50 [1] of 5 µM, a GI50 (HCT-116 [2]) of 1.36 µM and a GI50 at 72 h [3] greater than 20 µM. For the same compound, the GI50 at 72 h [4] was 10.3 µM, the GI50 [5] was greater than 20 µM and the GI50 [6] was 8.01 µM. For the same compound, the GI50 (HCT-116 [7]) was 9.73 µM and the GI50 [8] was greater than 20 µM.

With COC1=C(C)C(=O)C(CCCCCCCCCCN2CCCN(C(=O)c3ccc(-c4ccccc4)cc3)CC2)=C(C)C1=O the GI50 [1] was 1.56 µM, the GI50 (HCT-116 [2]) was 0.89 µM and the GI50 at 72 h [3] was greater than 20 µM. For the same compound, the GI50 at 72 h [4] was 3.15 µM, the GI50 [5] was greater than 20 µM and the GI50 [6] was 9.76 µM. It also gave a GI50 (HCT-116 [7]) of 9.68 µM and a GI50 [8] of 19.4 µM.

CC1=C(C)C(=O)C(CCCCCCCCCCN2CCCN(C(=O)c3ccc(-c4ccccc4)cc3)CC2)=C(C)C1=O gave a GI50 [1] of 1.39 µM, a GI50 (HCT-116 [2]) of 1.78 µM and a GI50 at 72 h [3] greater than 20 µM. It also gave a GI50 at 72 h [4] of 4 µM, a GI50 [5] greater than 20 µM and a GI50 [6] of 7.97 µM. The GI50 (HCT-116 [7]) was 7.47 µM and the GI50 [8] was 19.9 µM.

With CC1=C(CCCCCCCCCCN2CCCN(C(=O)c3ccc(-c4ccccc4)cc3)CC2)C(=O)c2ccccc2C1=O the GI50 [1] was 5.57 µM, the GI50 (HCT-116 [2]) was 0.97 µM and the GI50 at 72 h [3] was greater than 20 µM. For the same compound, the GI50 at 72 h [4] was 2.85 µM, the GI50 [5] was greater than 20 µM and the GI50 [6] was 12.4 µM. For the same compound, the GI50 (HCT-116 [7]) was 13.2 µM and the GI50 [8] was greater than 20 µM.

With O=C1C=C(CCCCCCCCCCN2CCCN(C(=O)c3ccc(-c4ccccc4)cc3)CC2)C(=O)c2ccccc21 the GI50 [1] was greater than 20 µM, the GI50 (HCT-116 [2]) was greater than 20 µM and the GI50 at 72 h [3] was greater than 20 µM. It also gave a GI50 at 72 h [4] greater than 20 µM, a GI50 [5] greater than 20 µM and a GI50 [6] greater than 20 µM. The GI50 (HCT-116 [7]) was greater than 20 µM and the GI50 [8] was greater than 20 µM.

For COC1=C(C)C(=O)C(CCCCCCCCCCN2CCN(C(=O)c3ccc(-c4ccccc4)cc3)CC2)=C(C)C1=O, the GI50 [1] was 5.27 µM, the GI50 (HCT-116 [2]) was 2.29 µM and the GI50 at 72 h [3] was greater than 20 µM. It also gave a GI50 at 72 h [4] of 3.19 µM, a GI50 [5] greater than 20 µM and a GI50 [6] greater than 20 µM. The GI50 (HCT-116 [7]) was 20 µM and the GI50 [8] was greater than 20 µM.

COc1cccc2c1C(=O)c1c(O)c3c(c(O)c1C2=O)C[C@@](O)(C(=O)CO)C[C@@H]3O[C@H]1C[C@H](N)[C@H](O)[C@H](C)O1 [DOXORUBICIN] showed a GI50 [5] of 0.33 µM, a GI50 [6] of 0.18 µM and a GI50 (HCT-116 [7]) of 0.15 µM. For the same compound, the GI50 [8] was 0.55 µM.
